# Measured values published in patent publication US20240360186A1, “Treatment Of Integrin-Related Disorders With Stapled Peptides” (Institute For Cancer Research d/b/a The Research Institute …, priority 2021, published 2024).
# Bridge positions count the residues as written; N and C are the ends. Square brackets hold non-standard residues; d marks the D form. Ends that are not written are not given here. Peptide text beside a SMILES is read from it. S5 = C=CCCC[C@](C)(N)C(=O)O
# B1: S-TBS, stapled talin-binding site peptide (Stp(15,19))H2N-NEDIDQMFSTLLGE(S5)DLL(S5)QS-OH (peptide)
# peptide: H-NEDIDQMFSTLLGE[S5]DLL[S5]QS-OH
# modifications: staple 15-19; also: FITC label in some assays, site not given here
# notes: X stands for the non-natural stapling residue (S5); also called stapled TBS; stapled-TBS
# Legend:
# MCF-7 cells = test: Cell toxicity assay, MCF-7; type: cell-based; settings: 40 μM, treated one hour then washed away, viability at 24 and 48 hours
# Method: (§1) The cell toxicity of the peptides was then examined. HEK, MCF-7, and HeLa were used. Cells were treated with S-TBS 40 μm for one hour. The S-TBS was then washed away and the viability measured at 24 and 48 hours. No impact on HEK, MCF-7, and HeLa cell growth was observed.
# CHO-A5 cells = test: Cell permeability assay (flow cytometry uptake of fluorophore-labelled peptide); type: in vitro ADME; settings: CHO-A5 cells, lower doses, flow cytometry permeability index, fluorophore-labelled peptides
# Method: Assessing membrane permeability: CHO-A5 cells were treated with FAM-labelled WT-TBS (1, 10, and 50 μM), or with FITC-labelled stapled-TBS (1, 10, and 50 μM), and incubated for 30 minutes at 37° C. The cells were washed twice with phosphate-buffered saline (PBS), harvested in trypsin-EDTA, and centrifuged at 2,000 rpm for 5 minutes. The cells were resuspended in PBS and quantified with an LSR flow cytometer using 30,000 cells per measurement.
# A common challenge for peptidomimetic drugs that target intracellular proteins is the poor cell membrane permeability. To assess the effect of the C8 staple on cell permeability, FITC-labeled S-TBS were incubated with CHO cells at various concentration and examined S-TBS uptake by flow cytometry. […] The assay was then performed using lower doses of peptides and quantified the signals for statistical analyses. […] In contrast, TBS requires a concentration of at least 5 μM for cell uptake (FIG. 3, Panel B).
# Cell permeability assay: CHO-A5 cells were plated in 6-well dishes, and then treated with fluorophore labeled TBS or S-TBS peptides at indicated concentrations for 30 minutes at 37° C. The cells were then washed twice with phosphate-buffered saline (PBS), detached by adding a mixture of trypsin and […] (“trypsin-EDTA”) and harvested by spinning at 2,000 rpm for 5 minutes. The cells were resuspended in PBS and quantified with an LSR flow cytometer (525/50 filter, 488 nm laser) using 30,000 cells per measurement.
# integrin αIIbβ3 [1] = test: Integrin activation assay, wild-type talin head domain; type: cell-based; settings: CHO-A5 cells expressing GFP-tagged wild-type talin head domain; TBS 100 μM, S-TBS 10 and 100 μM, 30 minutes; PAC1 flow cytometry
# Method: (§2) Assessing integrin activation: CHO-A5 cells were transfected with GFP-tagged talin-head domain (residues 1-430, WT or W359A) and incubated for 24 hours at 37° C. The cells were subsequently treated with WT-TBS at 100 μM or Staple-TBS (at 10 and 100 μM) for 30 minutes at 37° C. and washed twice with PBS, harvested in trypsin-EDTA, and centrifuged at 2,000 rpm for 5 minutes. The cells were incubated in Tyrode's buffer (136.9 mM NaCl, 10 mM HEPES, 5.5 mM glucose, 11.9 mM NaHCO3, 2.7 mM KCl, 0.5 mM CaCl2), 1.5 mM MgCl2, and 0.4 mM NaH2PO4, pH 7.4) containing PAC1 antibody for 1 hour at 30° C. and then stained with Alexa 647 (goat anti-mouse IgM) for 30 minutes at RT. The cells were quantified with an LSR flow cytometer using 30,000 cells per measurement.
# (§3) The effect of S-TBS on talin-induced activation of integrin αIIbβ3 was examined. CHO-A5 cells that stably express integrin αIIbβ3 were transfected with a green fluorescent protein-tagged talin head domain, treated with S-TBS or TBS, and then subjected flow cytometry analysis for integrin αIIbβ3 activity. […]
# (§4) Integrin activation assays: CHO-A5 cells were transfected with talin-head domain, wild-type or W359A, and incubated for 24 hours at 37° C. […] The cells were quantified with a Beckton, Dickenson & Co. Biosciences LSR flow cytometer (660/20 filter, 640 nm laser) using 30,000 cells per measurement.
# HEK-293 cells = test: Cell toxicity assay, HEK-293; type: cell-based; settings: 40 μM, treated one hour then washed away, viability at 24 and 48 hours
# Method: as §1
# integrin αIIbβ3 [2] = test: Integrin activation assay, inactive talin head mutant THD-W359A; type: cell-based; settings: CHO-A5 cells transfected with THD-W359A; TBS 100 μM, S-TBS 10 and 100 μM; PAC1 flow cytometry
# Method: as §2, §3, §4
# HeLa cells = test: Cell toxicity assay, HeLa; type: cell-based; settings: 40 μM, treated one hour then washed away, viability at 24 and 48 hours
# Method: as §1
# [3] = system: β3-THD (integrin β3-talin head domain fusion protein); test: GST pull-down, β3-THD chimera; type: binding; settings: GST-fused peptide on glutathione beads, His-tagged talin protein, Western blot
# From the text: The interaction of the TBS segment of RIAM with the talin head domain is compatible with the integrin-β:talin interaction (see, Yang et al., Nat. Commun., 2014, 5, 5880). To test this proposed synergistic interaction, a chimeric protein was constructed by fusing a integrin 03 segment to talin head domain (β3-THD) and assessed its interaction with TBS. […] The T14E mutation in TBS is expected to generate anew salt-bridge interaction with talin through the Arg358 residue, which is essential for the interaction of talin and integrin-β3 (FIG. 2, Panel D; see Barsukov et al., J. Biol. Chem., 2003, 278, 31202-09).
# Plasmid construction, protein purification, and GST pull-down: Talin R7R8, talin head domain, β3-THD chimera, and GST-TBS were expressed and purified as described previously described (see, Zhang et al., Proc. Natl. Acad. Sci. U.S.A., 2020, 117, 32402-12; and Chang et al., 2014). Point mutations were constructed using a site-directed mutagenesis method. […] The proteins were resolved by SDS-PAGE and detected by Coomassie staining or Western blotting. […] The blots were visualized with the SuperSignal West Pico Chemiluminescent Substrate (Thermo Scientific) and detected using the FluorChem E imager (ProteinSimple).
# [4] = molecular target: T1, Talin head domain (residues 1-430) (UniProt P26039 1-430); test: fluorescence polarization, as the legend of FIG. 9 Panel B prints it (Table 2 prints 116)
# T1 construct: range 1-430; also called THD
# Method: (§5) To assess the binding affinities of S-TBS with talin, the Kd of TBS and S-TBS peptides with talin rod R7R8 and talin head (residues 1-430) were measured using fluorophore-labeled peptides and recombinantly expressed, purified talin proteins by FP assays. […] This gain of affinity may be attributed to the C8 staple as it stabilizes the helical structure of TBS, and the enhanced hydrophobic interaction between S-TBS and talin rod. The enhanced binding of S-TBS to talin further validates the design strategy of using stapled peptides as a potent competitive inhibitor.
# (§6) Fluorescent Polarization: Mixtures were prepared of purified talin proteins at a series concentration (R7R8: 0.2 μM to 20 μM; THD/b3-THD: 5 μM to 100 μM), or buffer only, with 20 nM FITC-labeled S-TBS (New England Peptide) in a buffer containing 20 mM HEPES, pH 7.5, 100 mM NaCl, and 2 mM DTT. After five minutes of incubation, 20 μl of the reaction mix was added to individual wells of a 384-well assay plate (Corning) and then measured fluorescence polarization at room temperature using a plate reader. A […] as emission polarization filters. FP signals were normalized against buffer-only background and then fit to a single-site (saturating) binding model using SigmaPlot (Systat Software).
# [5] = molecular target: T1, Talin head domain (residues 1-430); test: fluorescence polarization; fluorophore-labelled peptide, purified talin protein titrated
# Method: as §5, §6
# Talin rod R7R8 domains [6] = molecular target: T2, Talin rod R7R8 domains (UniProt P26039 1357-1653, limits assumed); test: as above
# T2 construct: domain: R7R8; also called talin R7R8; talin rod double-domain R7R8
# Method: as §5, §6
# [7] = molecular target: T1, Talin head domain (residues 1-430); test: fluorescence polarization; Kd of S-TBS against Kd of TBS
# Method: as §5, §6
# Talin rod R7R8 domains [8] = molecular target: T2, Talin rod R7R8 domains; test: as above
# Method: as §5, §6
# Talin rod R7R8 domains [9] = molecular target: T2, Talin rod R7R8 domains; test: fluorescence polarization; fluorophore-labelled peptide titrated with talin R7R8
# Method: as §5, §6
# [10] = molecular target: T1, Talin head domain (residues 1-430); test: fluorescence polarization; fluorophore-labelled peptide titrated with talin head (residues 1-430)
# Method: as §5, §6
# T2 sequence (P26039 1357-1653 limits assumed): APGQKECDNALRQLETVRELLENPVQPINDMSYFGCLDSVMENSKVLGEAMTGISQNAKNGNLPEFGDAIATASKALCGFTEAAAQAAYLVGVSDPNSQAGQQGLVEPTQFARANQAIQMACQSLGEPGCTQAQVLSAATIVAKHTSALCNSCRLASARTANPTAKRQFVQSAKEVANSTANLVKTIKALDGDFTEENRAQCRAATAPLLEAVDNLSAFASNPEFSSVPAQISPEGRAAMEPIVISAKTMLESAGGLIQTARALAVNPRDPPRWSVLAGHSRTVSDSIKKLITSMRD
# T1 sequence (P26039 1-430 limits assumed): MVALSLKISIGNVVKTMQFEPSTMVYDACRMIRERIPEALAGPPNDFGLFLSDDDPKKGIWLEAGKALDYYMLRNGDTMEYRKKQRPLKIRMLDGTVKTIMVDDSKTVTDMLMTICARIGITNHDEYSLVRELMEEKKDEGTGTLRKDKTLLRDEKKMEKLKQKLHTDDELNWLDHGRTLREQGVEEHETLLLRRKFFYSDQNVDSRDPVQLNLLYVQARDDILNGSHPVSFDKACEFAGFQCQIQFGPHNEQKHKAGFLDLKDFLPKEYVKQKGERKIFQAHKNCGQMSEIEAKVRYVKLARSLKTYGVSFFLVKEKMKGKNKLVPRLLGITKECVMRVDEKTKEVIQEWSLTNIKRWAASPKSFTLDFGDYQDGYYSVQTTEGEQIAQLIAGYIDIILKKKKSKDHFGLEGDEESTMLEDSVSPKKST
molecule,measurement,setting,value
"CC[C@H](C)[C@H](NC(=O)[C@H](CC(=O)O)NC(=O)[C@H](CCC(=O)O)NC(=O)[C@@H](N)CC(N)=O)C(=O)N[C@@H](CC(=O)O)C(=O)N[C@@H](CCC(N)=O)C(=O)N[C@@H](CCSC)C(=O)N[C@@H](Cc1ccccc1)C(=O)N[C@@H](CO)C(=O)N[C@H](C(=O)N[C@@H](CC(C)C)C(=O)N[C@@H](CC(C)C)C(=O)NCC(=O)N[C@@H](CCC(=O)O)C(=O)N[C@@H](CCSC)C(=O)N[C@@H](CC(=O)O)C(=O)N[C@@H](CC(C)C)C(=O)N[C@@H](CC(C)C)C(=O)N[C@H](C(=O)N[C@@H](CCC(N)=O)C(=O)N[C@@H](CO)C(=O)O)[C@@H](C)O)[C@@H](C)O [TBS, reference compound] (H-NEDIDQMFSTLLGEMDLLTQS-OH; N-terminus and C-terminus assumed)","cell toxicity (viability / cell growth), MCF-7",MCF-7 cells,minimal cell toxicity
same,concentration giving significant cell uptake,CHO-A5 cells,at least 5 μM
same,integrin αIIbβ3 activity (talin-induced activation),integrin αIIbβ3 [1],no inhibitory effect
same,"cell toxicity (viability / cell growth), HEK",HEK-293 cells,minimal cell toxicity
same,integrin αIIbβ3 activity with inactive talin head THD-W359A,integrin αIIbβ3 [2],No inhibitory effect
same,"cell toxicity (viability / cell growth), HeLa",HeLa cells,minimal cell toxicity
same,interaction with β3-THD (pull-down),[3],much more strongly than with THD alone
"NEDIDQMFSTLLGEMDLLTQS (also: fluorescein (6-FAM) label in some assays, also called WT-TBS; unstapled TBS) [TBS peptide (unstapled talin-binding site peptide of RIAM)]",Kd,[4],106 µM
same,Kd,[5],116 µM
same,Kd,Talin rod R7R8 domains [6],17.7 µM
B1,fold stronger binding than TBS,[7],3.5 fold
same,fold stronger binding than TBS,Talin rod R7R8 domains [8],6 fold
same,EC50 (read off the curve),Talin rod R7R8 domains [9],~2 µM
same,EC50 (read off the curve),[10],10 to 20 µM
